From patent US20220098160A1, “NOVEL CDK 8/19 INHIBITORS” (BIOCAD, priority 2018, published 2022)
Where a name gives a salt, the structure may show the parent alone.

Assays:
[1] = Chemical stability in human blood plasma; type: in vitro ADME; details: pooled human blood plasma, 10 μM, 4 hours at 37° C., amount of substance remaining
Description: Chemical stability of the compounds described herein was determined in human blood plasma.
The determination of stability in human blood plasma was performed using a pooled human blood plasma taken from ten healthy donors. The initial solution of the candidate (10 mM in DMSO) was diluted with the pooled blood plasma to a concentration of 10 μM (test solution). The test solution was incubated in a solid-state thermostat for 4 hours at 37° C. The HPLC method and Agilent1200 chromatograph (Agilent, USA) were used to determine the peak areas of the compounds in the test samples corresponding to the initial test time (before incubation) and the final test time (after incubation in a solid-state thermostat for 4 hours at 37° C.) with preliminary precipitation of proteins using acetonitrile. Chromatographic analysis was performed using a gradient elution mode at a flow rate of 1 ml/min. The amount of substance in the sample expressed in % was determined after the thermostat treatment.

[2] = Enzymatic stability in human liver S9 fractions; type: in vitro ADME; details: pooled human liver S9 fraction; 0.5 mg/ml human liver S9, 10 μm compound, 37° C., pH 7.4
Description: Determining enzymatic stability of the candidates made it possible to evaluate the resistance of the compounds of the present invention to the exposure to biotransformation enzymes.
The enzymatic decomposition rate of the compounds was determined by incubation in a solid-state thermostat at 37° C. of a reaction mixture containing 0.5 mg/ml of pooled S9 fractions of the human liver (XenoTech, USA, cat. # H0610), 10 μm compounds, 2 mM β-nicotinamide adenine dinucleotide (Carbosynth, UK, cat. # NN 10871), and 4 mM magnesium chloride in 0.1 M sodium phosphate buffer (pH=7.4). The reaction was stopped with acetonitrile based on 100 μl of acetonitrile per 100 μl of the reaction mixture. After stopping the reaction, the samples were centrifuged for 10 minutes at 10,000 rpm. The supernatant was analyzed by chromatography using an Agilent1200 chromatograph (Agilent, USA). Chromatographic analysis was performed in a gradient elution mode at a flow rate of 1 ml/min. A logarithm of the peak area of the substance was plotted versus time. The dependent coefficient of this line corresponded to the elimination rate constant (k), which was used to calculate the half-life of the drug (t1/2) and decomposition rate (CLint): […]

[3] = Permeability through a monolayer of Caco-2 cells; type: in vitro ADME; details: human; for Papp A→B at 2 h, 10 μM: pH 6.5 upper / pH 7.4 lower chamber, 2 h at 37° C.; for efflux ratio at 2 h, 10 μM: Papp B-A/Papp A-B
Description: Determining the permeability through a monolayer of Caco-2 cells makes it possible to assess the ability of the substances to penetrate biological membranes by means of both active and passive transport.
The intestinal epithelial cells (Caco-2) were cultured using filter inserts ([…], BD Falcon with High Density) for 21 days, after which the monolayer integrity was checked using a Lucifer Yellow dye (Sigma-Aldrich, USA) according to the standard protocol. When setting up an A→B transfer (“intestinal lumen”—“blood flow” transfer), solutions of the tested substances were introduced in pH 6.5 buffer (HBSS, 10 mM HEPES, 15 mM glucose solution) at a concentration of 10 μM into the upper chamber, while the lower chamber was filled with pH 7.4 buffer (HBSS, 10 mM HEPES, 15 mM Glucose solution, 1% BSA). When setting up a B→A transfer (“blood flow”—“intestinal lumen” transfer), the upper chamber was filled with pH 6.5 buffer, and the solutions of the tested substances were introduced in pH 7.4 buffer at a concentration of 10 μM into the lower chamber. Propranolol, which is a high permeability substance, was used as a control.
After incubation for 2 h at 37° C. in an atmosphere containing 5% CO2, the amounts of the tested substances in the upper and lower chambers were determined by the HPLC method using an Agilent1200 chromatograph (Agilent, USA) with preliminary precipitation of proteins with acetonitrile. Chromatographic analysis was performed using a gradient elution mode at a flow rate of 1 ml/min. Peak areas corresponding to the compounds were determined on chromatograms. Based on the peak area values of the compound in calibration standards, compound concentrations in the initial solution and in the samples taken from the wells of the upper and lower chambers were determined.
Permeability through a layer of cells (Papp) was calculated based on the formula:
Papp=(C(t)*V)/(C(θ)*t*Area), where
Papp is the effective permeability constant, m/s V is the solution volume (0.8 ml in the A→B test, and 0.2 ml in the B→A test), ml Area is the surface area of the membrane (0.33 cm^2), cm^2 t is the incubation time (7,200 s), s C(θ) is the concentration of the initial solution, μM C(t) is the concentration of the solution after 2 hours (in the sample from the lower chamber well (test A→B), and in the sample from the upper chamber well (test B→A)), μM.
The value was calculated using the following formula:
efflux=Papp B-A/Papp A-B, where
Papp A-B is the permeability value during direct assay (A→B); Papp B-A is the permeability value during reverse assay (B→A);

MV4-11 cell line = experiment: Antiproliferative activity on MV4-11 cell line (AlamarBlue); type: cell-based; details: Homo sapiens, 120 h incubation, average of several runs, read-out: MV-4-11 IC50
Description: The antiproliferative activity of the CDK8 inhibitors according to the present invention was measured in a cell test on a finite MV4-11 cell line (biphenotypic myelomonocytic leukemia, ATCC© CRL-9591™) using an intravital AlamarBlue dye (ThermoFisher, #DAL1100). The cells were grown on an RPMI-1640 medium (PanEco, #C330p) supplemented with 10% FBS (Gibco, #16140-071), then washed and re-seeded on a culture medium with 10% FBS (Gibco, #16140-071) in 96-well culture plates (Corning, #3599) in the amount of ˜10×10^3 cells per 100 μl of medium per well. The tested compounds were dissolved in DMSO and diluted with 10% FBS (Gibco, #16140-071) to a final concentration ranging from 0 to 100 μM. […] At the end of the incubation period, 15 μl of AlamarBlue reagent (ThermoFisher, #DAL1100) were added to the wells. The contents of the plates were mixed using an orbital shaker (Biosan, Latvia), and incubated further from 3 to 5 hours at 37° C. in an incubator with 5% C02. The number of living cells was detected using a microplate spectrophotometer (Tecan Infinite M200Pro, Switzerland) by measuring a fluorescence signal at an excitation wavelength (λEx) of 540 nm and emission wavelength (λEm) of 590 nm.
The IC50 value was determined using the Magellan 7.2 program (Tesap, Switzerland) by approximating the experimental points using a four-parameter model with the Levenberg-Marquardt optimization (Table 10).

[4] = General cytotoxicity test on HepG2 cells; type: cell-based; details: human, 72 hours incubation, 200 to 0.78 μM, average of several runs, read-out: Hep-G2 CC50
Description: The CC50 value was determined in a cytotoxicity test. The experiments were performed using HepG2 cells (hepatocellular carcinoma, ATCC© HB-8065™). The cells were seeded into 96-well plates (Corning, #3599) at a concentration of ˜20×10^3 cells per 100 μl of medium per well, and incubated for 72 hours with the introduced compounds in the concentration range from 200 to 0.78 μM. Cell viability was evaluated according to the method described above.

CDK8/CyclinC = molecular target: T1, CDK8/CyclinC (Homo sapiens, UniProt P49336); experiment: LanthaScreen TR-FRET binding to recombinant CDK8 in complex with Cyclin C; details: CDK8/CyclinC 5 nM, Tracer 236 10 nm, average of several runs; read-out: CDK8-CycC IC50
T1 construct: purchased ThermoFisher PR7261B
Description: The ability of the compounds described herein to bind to the CDK8 protein was determined using the LanthaScreen method (ThermoFisher).
The measurements were conducted in a reaction volume (15 μl) using a 384-well plate (Corning, #CLS4513). CDK8/CyclinC enzyme (ThermoFisher, #PR7261B) was mixed with Anti-His-tag-Biotin antibodies (ThermoFisher, #PV6090), Streptavidin-Eu (ThermoFisher, #PV6025), and the resulting mixture was added to the wells of the plate in the amount of 5 μl per well. The final concentrations of the substances were as follows: CDK8/CyclinC—5 nM, Streptavidin-Eu—3 nM, Anti-His-tag-Biotin—3 nM. Staurosporine was used as a control inhibitor, and a 0.1% solution of dimethyl sulfoxide (DMSO) in the reaction buffer containing 250 mM HEPES (pH 7.5), 50 mM MgCl2, 5 mM EGTA, and 0.05% Brij-35 was used as a blank.
Tested inhibitors and controls were added to the corresponding wells in the amount of 5 μl per well. The plate was incubated at room temperature for 20 minutes. […] The final concentration of the tracer was 10 nm. A reaction buffer was used as a negative control instead of the tracer solution. The plate was incubated for 40 minutes at 25° C. Then the TR-FRET signal was measured on a SPARK20 plate reader (Tesap, Switzerland) according to the manufacturer's recommendations, and converted to the amount of kinase-bound tracer. The IC50 value was determined using the SparkControl Magellan 1.2 program (Tesap, Switzerland) by approximating the experimental points using a four-parameter model with the Levenberg-Marquardt optimization (Table 11).

T1 sequence (P49336 whole entry): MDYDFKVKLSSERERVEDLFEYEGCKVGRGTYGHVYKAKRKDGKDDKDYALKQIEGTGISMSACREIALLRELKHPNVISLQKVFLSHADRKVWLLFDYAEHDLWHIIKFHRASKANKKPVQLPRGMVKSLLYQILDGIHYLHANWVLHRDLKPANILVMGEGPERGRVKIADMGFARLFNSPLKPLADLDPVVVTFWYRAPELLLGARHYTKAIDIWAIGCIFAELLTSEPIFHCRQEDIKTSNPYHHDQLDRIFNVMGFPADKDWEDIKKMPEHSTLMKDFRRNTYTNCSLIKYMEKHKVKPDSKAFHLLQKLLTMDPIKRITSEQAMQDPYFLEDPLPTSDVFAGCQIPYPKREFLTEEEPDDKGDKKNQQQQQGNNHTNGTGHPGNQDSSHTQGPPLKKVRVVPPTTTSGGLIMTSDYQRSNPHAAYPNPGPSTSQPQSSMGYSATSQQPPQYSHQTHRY
T1 sequence (P24863 whole entry partner): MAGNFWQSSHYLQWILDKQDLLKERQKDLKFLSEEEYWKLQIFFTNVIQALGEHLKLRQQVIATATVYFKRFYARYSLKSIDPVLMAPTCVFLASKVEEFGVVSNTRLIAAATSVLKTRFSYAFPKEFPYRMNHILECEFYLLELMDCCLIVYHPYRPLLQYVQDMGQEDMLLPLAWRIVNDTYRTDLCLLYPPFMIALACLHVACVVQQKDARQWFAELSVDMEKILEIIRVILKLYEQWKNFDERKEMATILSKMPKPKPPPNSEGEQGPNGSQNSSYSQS

Row | Compound | Stability in blood plasma, % [1] | IC50 (MV4-11 cell line) | IC50 (CDK8/CyclinC) | Stability in blood plasma, % ([1]; dihydrochloride) | microsomal CLint at 10 μM [2] | Papp A→B at 2 h, 10 μM [3] | efflux ratio at 2 h, 10 μM [3] | CC50 at 72 h [4]
1 | N#Cc1ccc2nccc(NCCc3ccc4cc(C(=O)N5CCNCC5)ccc4c3)c2c1 [Compound 18, 4-((2-(6-(piperazine-1-carbonyl)naphth-2-yl)ethyl)amino)quinoline-6-carbonitryl] | 100% | 19 nM |  |  | 4.4 µL/min/mg | 22.4 ×10⁻⁶ cm/s | 0.3 | 11600 nM
2 | CN1CCN(C(=O)c2ccc3cc(CCSc4ccnc5ccc(C#N)cc45)ccc3c2)CC1 [Compound 19, 4-((2-(6-(4-methylpiperazine-1-carbonyl)naphth-2-yl)ethyl)thio) quinoline-6-carbonitryl] |  | 2610 nM | 118 nM |  |  |  |  | > 200000 nM
3 | CN1CCN(C(=O)c2ccc3cc(CCNc4c(Cl)cnc5ccc(C#N)cc45)ccc3c2)CC1 [Compound 9a, 3-chloro-4-((2-(6-(4-methylpiperazine-1-carbonyl)naphth-2-yl)ethyl)amino) quinoline-6-carbonitryl dihydrochloride] |  |  |  | 87.9% |  |  |  | 
4 | CN1CCN(C(=O)c2ccc3cc(CCNc4ccnc5ccc(C#N)cc45)ccc3c2)CC1 [Compound 5, 4-((2-(6-(4-methylpiperazine-1-carbonyl)naphth-2-yl)ethyl)amino) quinoline-6-carbonitryl] | 100% | 125 nM | 6.07 nM |  | 7.2 µL/min/mg | 7.1 ×10⁻⁶ cm/s | 2 | > 60000 nM
5 | CCN1CCN(C(=O)c2ccc3cc(CCNc4ccnc5ccc(C#N)cc45)ccc3c2)CC1 [Compound 12] |  | 79 nM | 6.54 nM |  |  |  |  | 10600 nM
6 | N#Cc1ccc2nccc(NCCc3ccc4cc(C(=O)N5CCOCC5)ccc4c3)c2c1 [Compound 13] |  | 57 nM | 4.04 nM |  |  |  |  | ~15000 nM
7 | CC(C)N1CCN(C(=O)c2ccc3cc(CCNc4ccnc5ccc(C#N)cc45)ccc3c2)CC1 [Compound 7] |  | 91 nM | 5.77 nM |  |  |  |  | 8900 nM

Continued by falling IC50 (CDK8/CyclinC), values first:

Row | Stability in blood plasma, % [1] | IC50 (MV4-11 cell line) | IC50 (CDK8/CyclinC) | Stability in blood plasma, % ([1]; dihydrochloride) | Compound | microsomal CLint at 10 μM [2] | Papp A→B at 2 h, 10 μM [3] | efflux ratio at 2 h, 10 μM [3] | CC50 at 72 h [4]
8 |  | 3300 nM | 655 nM |  | CN1CCN(C(=O)c2ccc3cc(CCNc4ccnc5ncc(C#N)cc45)ccc3c2)CC1 [Compound 11, 5-((2-(6-(4-methylpiperazine-1-carbonyl)naphth-2-yl)ethyl)amino)-1,8-naphthyridin-3-carbonitryl] |  |  |  | 85100 nM
9 |  |  | 404 nM |  | CN1CCN(C(=O)c2ccc3cc(CCNc4cnnc5ccc(C#N)cc45)ccc3c2)CC1 [Compound 4, 4-((2-(6-(4-methylpiperazine-1-carbonyl)naphth-2-yl)ethyl)amino) cinnoline-6-carbonitryl] |  |  |  | 
10 |  | 602 nM | 58.2 nM |  | CN1CCN(C(=O)c2ccc3cc(CCOc4ccnc5ccc(C#N)cc45)ccc3c2)CC1 [Compound 8, 4-(2-(6-(4-methylpiperazine-1-carbonyl)naphth-2-yl)ethoxy) quinoline-6-carbonitryl] |  |  |  | 11200 nM
11 |  | 113 nM | 28.5 nM |  | N#Cc1ccc2nccc(NCCc3ccc4cc(C(=O)N5CCN(CC(F)(F)F)CC5)ccc4c3)c2c1 [Compound 17, 4-((2-(6-(4-(2,2,2-trifluoroethyl)piperazine-4-carbonyl)naphth-2-yl)ethyl)amino)quinoline-6-carbonitryl] |  |  |  | 17900 nM
12 | 91.1% | 106 nM | 20.5 nM |  | CN1CCN(C(=O)c2ccc3cc(CCNc4c(Cl)cnc5ccc(C#N)cc45)ccc3c2)CC1 [Compound 9, 3-chloro-4-((2-(6-(4-methylpiperazine-1-carbonyl)naphth-2-yl)ethyl)amino) quinoline-6-carbonitryl] |  |  |  | 47300 nM
